Tests used:
Assay in all cases: relative viability (nuclei count vs DMSO), 5 days (fraction); higher = more cells survive
[1] = compound: CN(C)C[C@@H]1CCn2cc(c3ccccc32)C2=C(C(=O)NC2=O)c2cn(c3ccccc23)CCO1 [Ruboxistaurin] + CC1(C)CCC(c2ccc(Cl)cc2)=C(CN2CCN(c3ccc(C(=O)NS(=O)(=O)c4ccc(N[C@H](CCN5CCOCC5)CSc5ccccc5)c(S(=O)(=O)C(F)(F)F)c4)cc3)CC2)C1 [Navitoclax] (partner 0.5 µM)
Summary of the method: (§1)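 One day after seeding in 1536-well plates, lung cancer cell lines were dosed by pin tool. Dosing was either single-drug or a fixed anchor-drug dose plus five library-drug doses (not always all listed) in √10 steps. After 5 days, nuclei were stained in one fix-and-stain step and counted on 4× images, and relative viability is the nuclei count of treated wells over that of vehicle wells, given as the median of duplicate plates.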

[2] = compound: CN(C)C[C@@H]1CCn2cc(c3ccccc32)C2=C(C(=O)NC2=O)c2cn(c3ccccc23)CCO1 [Ruboxistaurin] + COc1cc2c(Oc3ccc(NC(=O)C4(C(=O)Nc5ccc(F)cc5)CC4)cc3F)ccnc2cc1OCCCN1CCOCC1 [Foretinib] (partner 0.25 µM)
Summary of the method: as §1

[3] = compound: CN(C)C[C@@H]1CCn2cc(c3ccccc32)C2=C(C(=O)NC2=O)c2cn(c3ccccc23)CCO1 [Ruboxistaurin] + COc1cccc2cc(-c3nc([C@H]4CC[C@H](C(=O)O)CC4)n4ncnc(N)c34)[nH]c12 [OSI-027] (partner 0.5 µM)
Summary of the method: as §1

[4] = compound: CN(C)C[C@@H]1CCn2cc(c3ccccc32)C2=C(C(=O)NC2=O)c2cn(c3ccccc23)CCO1 [Ruboxistaurin] + Cc1cc(Nc2cc(N3CCN(C)CC3)nc(Sc3ccc(NC(=O)C4CC4)cc3)n2)n[nH]1 [Tozasertib] (partner 0.1 µM)
Summary of the method: as §1

[5] = compound: CN(C)C[C@@H]1CCn2cc(c3ccccc32)C2=C(C(=O)NC2=O)c2cn(c3ccccc23)CCO1 [Ruboxistaurin] + Nc1nc2[nH]cc(CCc3ccc(C(=O)N[C@@H](CCC(=O)O)C(=O)O)cc3)c2c(=O)[nH]1 [Pemetrexed] (partner 0.2 µM)
Summary of the method: as §1

Row | Cell Line | relative viability ([1]; first compound 0.08 µM) | relative viability ([1]; first compound 0.8 µM) | relative viability ([1]; first compound 2.53 µM) | relative viability ([1]; first compound 8 µM) | relative viability ([2]; first compound 0.08 µM) | relative viability ([2]; first compound 0.8 µM) | relative viability ([2]; first compound 2.53 µM) | relative viability ([2]; first compound 8 µM) | relative viability ([3]; first compound 0.08 µM) | relative viability ([3]; first compound 0.8 µM) | relative viability ([3]; first compound 2.53 µM) | relative viability ([3]; first compound 8 µM) | relative viability ([4]; first compound 0.08 µM) | relative viability ([4]; first compound 0.8 µM) | relative viability ([4]; first compound 2.53 µM) | relative viability ([4]; first compound 8 µM) | relative viability ([5]; first compound 0.08 µM) | relative viability ([5]; first compound 0.8 µM) | relative viability ([5]; first compound 2.53 µM) | relative viability ([5]; first compound 8 µM)
1 | HCC-78 | 0.802 | 0.686 | 0.812 | 0.793 | 0.553 | 0.593 | 0.546 | 0.528 | 0.346 | 0.335 | 0.316 | 0.3 | 0.368 | 0.352 | 0.321 | 0.393 | 0.85 | 0.91 | 0.828 | 0.945
2 | HCC-366 | 1.05 | 0.81 | 1.16 | 0.995 | 1.08 | 0.919 | 0.882 | 0.874 | 0.965 | 0.675 | 0.869 | 0.411 | 0.0941 | 0.0617 | 0.084 | 0.0522 | 0.181 | 0.182 | 0.158 | 0.209
3 | HCC-827 | 1.05 | 1.05 | 1.01 | 1.04 | 1.17 | 1.03 | 1.03 | 1 | 0.889 | 0.82 | 0.772 | 0.605 | 0.43 | 0.393 | 0.423 | 0.423 | 0.265 | 0.252 | 0.268 | 0.28
4 | HOP-62 | 1.15 | 1 | 1.12 | 1.35 | 1.13 | 1.07 | 1.13 | 1.22 | 0.884 | 0.783 | 0.826 | 0.753 | 0.362 | 0.299 | 0.352 | 0.424 | 0.299 | 0.241 | 0.298 | 0.31
5 | IA-LM | 0.852 | 0.722 | 0.862 | 0.987 | 1.14 | 1.11 | 1.31 | 1.38 | – | – | – | – | – | – | – | – | – | – | – | –
6 | LC-2-ad | 0.474 | 0.395 | 0.557 | 0.345 | 1.03 | 0.905 | 1.02 | 0.747 | 0.935 | 0.842 | 0.86 | 0.781 | 0.55 | 0.45 | 0.476 | 0.475 | 0.259 | 0.284 | 0.285 | 0.282
7 | LCLC-97TM1 | 0.672 | – | 0.332 | 0.411 | 0.863 | 0.891 | 0.923 | 0.825 | 0.508 | 0.547 | 0.482 | 0.243 | 0.194 | 0.168 | 0.242 | 0.159 | 0.193 | 0.172 | 0.198 | 0.16
8 | LCLC-103H | – | – | – | – | 0.783 | 0.612 | 0.777 | 0.56 | 0.46 | 0.384 | 0.407 | 0.357 | 0.52 | 0.326 | 0.519 | 0.472 | 0.47 | 0.479 | 0.434 | 0.608
9 | LK-2 | 0.893 | 0.792 | 0.875 | 0.674 | 1.32 | 0.962 | 0.927 | 0.892 | 0.224 | 0.222 | 0.158 | 0.158 | 0.174 | 0.152 | 0.179 | 0.162 | 0.266 | 0.346 | 0.309 | 0.242
10 | LOU-NH91 | 0.846 | 0.58 | 0.738 | 0.692 | 1.02 | 0.879 | 0.898 | 0.944 | 0.748 | 0.629 | 0.663 | 0.676 | 0.744 | 0.509 | 0.674 | 0.76 | 0.398 | 0.405 | 0.407 | 0.434
11 | LU99A | 0.883 | 0.71 | 0.798 | 0.716 | 0.802 | 0.774 | 0.778 | 0.751 | 0.285 | 0.271 | 0.266 | 0.258 | 0.256 | 0.205 | 0.221 | 0.229 | 0.159 | 0.179 | 0.171 | 0.203
12 | NCI-H358 | – | – | – | – | 0.878 | 0.603 | 0.829 | 0.535 | 0.95 | 0.642 | 0.787 | 0.471 | 0.116 | 0.0986 | 0.118 | 0.0882 | 0.171 | 0.175 | 0.177 | 0.162
13 | NCI-H522 | – | – | – | – | – | – | – | – | 0.741 | 0.783 | 0.909 | 0.689 | 0.502 | 0.502 | 0.563 | 0.524 | 1.06 | 0.791 | 1.18 | 1.02
14 | NCI-H650 | – | – | – | – | 1.11 | 1.01 | 1.06 | 1.2 | 0.662 | 0.49 | 0.584 | 0.523 | 0.81 | 0.685 | 0.82 | 0.863 | 0.995 | 0.948 | 0.981 | 0.817
15 | NCI-H661 | – | – | – | – | 1.05 | 0.996 | 1.07 | 1.07 | 0.78 | 0.599 | 0.695 | 0.6 | 0.366 | 0.332 | 0.372 | 0.344 | 0.932 | 0.873 | 0.921 | 0.874
16 | NCI-H727 | 0.46 | 0.394 | 0.458 | 0.338 | 1.15 | 0.718 | 0.84 | 0.645 | 0.764 | 0.416 | 0.523 | 0.448 | 0.69 | 0.463 | 0.579 | 0.536 | – | – | – | –
17 | NCI-H1792 | 0.701 | 0.605 | 0.637 | 0.68 | – | – | – | – | 0.798 | 0.605 | 0.736 | 0.625 | – | – | – | – | 0.845 | 0.659 | 0.749 | 0.584
18 | SW 900 | – | – | – | – | 0.918 | 0.872 | 0.833 | 0.955 | 0.555 | 0.5 | 0.593 | 0.422 | 0.647 | 0.499 | 0.656 | 0.452 | 0.479 | 0.421 | 0.489 | 0.491

From the supplement of paper PMC10307832
